Measured values reported in paper PMC7265341, “Quantifying CDK inhibitor selectivity in live cells” (Nature Communications, 2020).
Read-outs that look alike come from different tables or passages of the source.

Columns and labels:
CDK17/Cyclin Y = CDK17/Cyclin Y (Homo sapiens, UniProt Q00537); assay: NanoBRET live-cell target engagement, CDK17-NanoLuc/Cyclin Y in HEK-293; assay type: binding; settings: read-out: CDK17/Y Inhibition at 10µM (%), 10µM
CDK8/Cyclin C = CDK8/Cyclin C (Homo sapiens, UniProt P49336); assay: NanoBRET live-cell target engagement, NanoLuc-CDK8/Cyclin C in HEK-293; assay type: binding; settings: 10µM, read-out: CDK8/C Inhibition at 10µM (%)
CDK8/Cyclin C, sequence (P49336 whole entry): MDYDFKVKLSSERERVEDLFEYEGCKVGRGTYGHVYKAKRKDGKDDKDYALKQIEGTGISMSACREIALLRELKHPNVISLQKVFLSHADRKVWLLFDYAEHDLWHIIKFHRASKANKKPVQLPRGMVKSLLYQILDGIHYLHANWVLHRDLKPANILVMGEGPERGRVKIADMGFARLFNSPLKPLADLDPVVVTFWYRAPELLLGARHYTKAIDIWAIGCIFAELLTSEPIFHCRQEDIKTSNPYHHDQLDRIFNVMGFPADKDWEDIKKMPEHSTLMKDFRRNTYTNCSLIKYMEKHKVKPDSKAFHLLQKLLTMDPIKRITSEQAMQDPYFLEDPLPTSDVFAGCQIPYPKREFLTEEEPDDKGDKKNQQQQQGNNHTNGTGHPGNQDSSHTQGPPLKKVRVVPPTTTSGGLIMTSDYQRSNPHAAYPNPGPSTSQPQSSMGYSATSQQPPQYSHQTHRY
CDK8/Cyclin C, sequence (P24863 whole entry partner): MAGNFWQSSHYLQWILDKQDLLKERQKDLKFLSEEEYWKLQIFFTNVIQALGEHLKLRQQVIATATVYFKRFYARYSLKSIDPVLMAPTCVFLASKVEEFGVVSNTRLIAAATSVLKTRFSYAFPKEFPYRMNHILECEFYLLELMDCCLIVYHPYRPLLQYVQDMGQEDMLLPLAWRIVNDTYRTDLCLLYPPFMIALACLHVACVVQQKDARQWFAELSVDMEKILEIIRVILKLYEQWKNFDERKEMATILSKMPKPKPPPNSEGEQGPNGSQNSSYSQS

CDK11A/Cyclin L2 = molecular target: T1, CDK11A/Cyclin L2 (Homo sapiens, UniProt Q9UQ88); assay: NanoBRET live-cell target engagement, CDK11A-NanoLuc/Cyclin L2 in HEK-293; assay type: binding; settings: read-out: CDK11a/L2 Inhibition at 10µM (%), 10µM
T1 sequence (Q9UQ88 1-783): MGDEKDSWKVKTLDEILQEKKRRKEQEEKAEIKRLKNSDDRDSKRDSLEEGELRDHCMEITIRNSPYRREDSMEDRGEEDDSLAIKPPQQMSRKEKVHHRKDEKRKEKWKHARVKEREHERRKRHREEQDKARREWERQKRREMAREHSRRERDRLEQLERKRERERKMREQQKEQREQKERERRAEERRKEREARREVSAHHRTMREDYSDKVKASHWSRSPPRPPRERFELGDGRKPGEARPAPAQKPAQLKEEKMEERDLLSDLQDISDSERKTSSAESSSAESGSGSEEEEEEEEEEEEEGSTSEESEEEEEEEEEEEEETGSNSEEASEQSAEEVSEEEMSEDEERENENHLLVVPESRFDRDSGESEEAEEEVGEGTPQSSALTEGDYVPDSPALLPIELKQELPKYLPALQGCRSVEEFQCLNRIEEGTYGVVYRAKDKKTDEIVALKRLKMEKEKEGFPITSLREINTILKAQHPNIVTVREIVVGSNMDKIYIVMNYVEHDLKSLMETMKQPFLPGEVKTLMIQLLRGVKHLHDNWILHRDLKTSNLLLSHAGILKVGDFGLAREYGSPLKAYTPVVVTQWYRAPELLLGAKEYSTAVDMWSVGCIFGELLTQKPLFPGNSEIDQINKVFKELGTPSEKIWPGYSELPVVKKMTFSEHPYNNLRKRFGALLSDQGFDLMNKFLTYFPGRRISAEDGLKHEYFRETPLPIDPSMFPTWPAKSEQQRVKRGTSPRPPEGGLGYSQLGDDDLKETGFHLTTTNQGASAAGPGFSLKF

CDK15/Cyclin Y = CDK15/Cyclin Y (Homo sapiens, UniProt Q96Q40); assay: NanoBRET live-cell target engagement, NanoLuc-CDK15/Cyclin Y in HEK-293; assay type: binding; settings: for inhibition at 10 µM: read-out: CDK15/Y Inhibition at 10µM (%), 10µM
CDK10/Cyclin L2 = CDK10/Cyclin L2 (Homo sapiens, UniProt Q15131); assay: NanoBRET live-cell target engagement, CDK10-NanoLuc/Cyclin L2 in HEK-293; settings: for inhibition at 10 µM: read-out: CDK10/L2 Inhibition at 10µM (%), 10µM
CDK10/Cyclin L2, sequence (Q15131 whole entry): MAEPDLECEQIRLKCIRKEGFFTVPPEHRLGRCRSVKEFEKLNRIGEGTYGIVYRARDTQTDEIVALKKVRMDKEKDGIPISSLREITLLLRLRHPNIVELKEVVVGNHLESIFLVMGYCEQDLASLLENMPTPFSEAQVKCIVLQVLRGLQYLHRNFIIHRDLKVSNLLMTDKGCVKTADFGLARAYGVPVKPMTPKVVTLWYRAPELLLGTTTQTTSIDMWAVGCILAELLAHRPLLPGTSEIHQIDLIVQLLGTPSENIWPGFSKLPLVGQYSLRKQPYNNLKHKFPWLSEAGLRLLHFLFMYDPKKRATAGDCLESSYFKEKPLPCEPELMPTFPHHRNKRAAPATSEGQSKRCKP

CDK13/Cyclin K = CDK13/Cyclin K (Homo sapiens, UniProt Q14004); assay: NanoBRET live-cell target engagement, CDK13-NanoLuc/Cyclin K in HEK-293; assay type: binding; settings: 10µM, read-out: CDK13/K Inhibition at 10µM (%)
CDK13/Cyclin K, sequence (O75909 whole entry): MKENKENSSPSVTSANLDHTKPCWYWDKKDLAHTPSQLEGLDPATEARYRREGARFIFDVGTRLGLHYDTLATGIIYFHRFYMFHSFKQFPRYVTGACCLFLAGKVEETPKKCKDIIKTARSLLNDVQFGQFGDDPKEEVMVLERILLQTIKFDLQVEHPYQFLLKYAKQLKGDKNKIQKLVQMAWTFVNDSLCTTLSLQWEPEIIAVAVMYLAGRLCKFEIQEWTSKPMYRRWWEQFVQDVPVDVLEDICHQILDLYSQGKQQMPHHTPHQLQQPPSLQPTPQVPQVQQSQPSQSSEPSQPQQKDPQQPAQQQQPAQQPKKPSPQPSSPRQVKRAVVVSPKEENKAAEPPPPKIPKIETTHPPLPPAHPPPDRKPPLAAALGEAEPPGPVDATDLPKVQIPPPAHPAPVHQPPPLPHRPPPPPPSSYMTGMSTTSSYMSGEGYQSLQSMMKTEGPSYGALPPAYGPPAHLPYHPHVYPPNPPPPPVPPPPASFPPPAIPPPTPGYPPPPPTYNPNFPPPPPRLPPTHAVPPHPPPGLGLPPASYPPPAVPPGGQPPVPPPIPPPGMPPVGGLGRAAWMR
CDK13/Cyclin K, sequence (Q14004 other isoform, or with tags, fused parts or gaps): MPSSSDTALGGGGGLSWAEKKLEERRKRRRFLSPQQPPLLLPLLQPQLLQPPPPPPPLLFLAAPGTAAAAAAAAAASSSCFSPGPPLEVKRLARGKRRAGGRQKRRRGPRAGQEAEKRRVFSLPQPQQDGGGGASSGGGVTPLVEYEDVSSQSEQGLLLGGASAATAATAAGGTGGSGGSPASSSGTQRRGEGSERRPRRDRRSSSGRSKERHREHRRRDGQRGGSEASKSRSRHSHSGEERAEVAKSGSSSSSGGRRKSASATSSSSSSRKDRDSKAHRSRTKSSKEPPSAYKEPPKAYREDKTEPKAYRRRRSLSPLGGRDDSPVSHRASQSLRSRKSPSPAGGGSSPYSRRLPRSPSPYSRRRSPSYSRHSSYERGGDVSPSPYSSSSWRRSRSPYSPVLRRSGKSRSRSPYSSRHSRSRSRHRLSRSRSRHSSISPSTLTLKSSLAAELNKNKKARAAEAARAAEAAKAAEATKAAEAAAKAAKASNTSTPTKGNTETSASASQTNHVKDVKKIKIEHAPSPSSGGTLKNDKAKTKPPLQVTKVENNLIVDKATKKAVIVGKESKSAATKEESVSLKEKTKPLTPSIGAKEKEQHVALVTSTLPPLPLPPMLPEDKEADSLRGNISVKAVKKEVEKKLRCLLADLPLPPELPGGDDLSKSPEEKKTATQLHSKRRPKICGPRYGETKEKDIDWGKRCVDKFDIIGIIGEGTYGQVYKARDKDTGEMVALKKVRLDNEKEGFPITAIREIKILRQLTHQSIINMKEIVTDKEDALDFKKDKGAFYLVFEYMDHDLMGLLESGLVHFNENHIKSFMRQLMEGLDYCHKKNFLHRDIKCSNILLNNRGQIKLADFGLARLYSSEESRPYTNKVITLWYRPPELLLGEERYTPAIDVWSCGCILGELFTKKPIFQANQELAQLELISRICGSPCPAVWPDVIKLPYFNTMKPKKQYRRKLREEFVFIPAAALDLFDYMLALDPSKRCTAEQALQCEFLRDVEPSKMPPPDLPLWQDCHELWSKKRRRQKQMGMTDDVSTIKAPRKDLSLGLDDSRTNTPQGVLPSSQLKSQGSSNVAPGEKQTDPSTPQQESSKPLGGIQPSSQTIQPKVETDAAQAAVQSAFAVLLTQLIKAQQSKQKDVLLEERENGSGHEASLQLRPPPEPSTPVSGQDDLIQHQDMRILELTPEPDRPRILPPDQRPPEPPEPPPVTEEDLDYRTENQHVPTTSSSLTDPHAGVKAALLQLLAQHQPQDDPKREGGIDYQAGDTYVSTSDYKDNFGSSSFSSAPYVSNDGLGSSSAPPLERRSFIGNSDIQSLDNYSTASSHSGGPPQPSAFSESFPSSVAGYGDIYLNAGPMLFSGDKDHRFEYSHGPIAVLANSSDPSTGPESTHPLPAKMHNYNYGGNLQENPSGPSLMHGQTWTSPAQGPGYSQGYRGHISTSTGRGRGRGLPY

CDK2/Cyclin E1 = CDK2/Cyclin E1 (Homo sapiens, UniProt P24941); assay: NanoBRET live-cell target engagement, CDK2-NanoLuc/Cyclin E1 in HEK-293; assay type: binding; settings: for inhibition at 10 µM: read-out: CDK2/E1 Inhibition at 10µM (%); for CDK2 Occupancy (%): Panel A
CDK7 = CDK7 (Homo sapiens, UniProt P50613); assay: NanoBRET live-cell target engagement, NanoLuc-CDK7 in HEK-293; assay type: binding; settings: for inhibition at 10 µM: read-out: CDK7 Inhibition at 10µM (%); for CDK7 Occupancy (%): Panel A
CDK7, sequence (P50613 whole entry): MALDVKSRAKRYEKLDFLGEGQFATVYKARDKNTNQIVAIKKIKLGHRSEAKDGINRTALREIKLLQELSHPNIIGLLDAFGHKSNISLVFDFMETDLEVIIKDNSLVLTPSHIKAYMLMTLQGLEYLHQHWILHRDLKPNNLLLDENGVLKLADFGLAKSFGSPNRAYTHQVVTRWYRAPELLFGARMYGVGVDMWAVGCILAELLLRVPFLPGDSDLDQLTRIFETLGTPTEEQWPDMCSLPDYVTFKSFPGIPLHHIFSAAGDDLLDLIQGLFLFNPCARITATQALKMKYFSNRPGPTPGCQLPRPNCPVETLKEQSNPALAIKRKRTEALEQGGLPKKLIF

CDK19/Cyclin C = CDK19/Cyclin C (Homo sapiens, UniProt Q9BWU1); assay: NanoBRET live-cell target engagement, NanoLuc-CDK19/Cyclin C in HEK-293; settings: read-out: CDK19/C Inhibition at 10µM (%), 10µM
CDK19/Cyclin C, sequence (Q9BWU1 whole entry): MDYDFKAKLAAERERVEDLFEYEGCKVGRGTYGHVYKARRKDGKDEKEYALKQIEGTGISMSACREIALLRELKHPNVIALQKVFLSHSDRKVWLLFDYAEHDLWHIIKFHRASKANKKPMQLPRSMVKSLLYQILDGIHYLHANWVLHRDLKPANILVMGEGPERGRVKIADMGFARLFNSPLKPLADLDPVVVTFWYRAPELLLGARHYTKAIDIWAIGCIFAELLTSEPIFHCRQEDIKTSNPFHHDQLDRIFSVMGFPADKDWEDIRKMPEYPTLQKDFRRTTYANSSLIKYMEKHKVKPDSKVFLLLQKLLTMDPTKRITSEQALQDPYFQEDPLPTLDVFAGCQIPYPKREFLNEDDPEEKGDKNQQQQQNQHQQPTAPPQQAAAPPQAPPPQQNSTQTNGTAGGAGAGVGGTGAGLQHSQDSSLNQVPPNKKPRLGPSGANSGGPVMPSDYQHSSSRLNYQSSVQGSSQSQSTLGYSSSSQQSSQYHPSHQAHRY
CDK19/Cyclin C, sequence (P24863 whole entry partner): as the sequence (P24863 whole entry partner) above

[1] = LOG10([RGB-286638]) 0.045757 LOG10(µM)
[2] = LOG10([RGB-286638]) 0.522879 LOG10(µM)
[3] = LOG10([RGB-286638]) 1 LOG10(µM)
[4] = LOG10([RGB-286638]) -0.43136 LOG10(µM)
[5] = LOG10([RGB-286638]) -0.90849 LOG10(µM)
[6] = LOG10([RGB-286638]) -1.38561 LOG10(µM)
[7] = LOG10([RGB-286638]) -1.86273 LOG10(µM)
[8] = LOG10([RGB-286638]) -2.33985 LOG10(µM)
[9] = LOG10([RGB-286638]) -2.81697 LOG10(µM)
[10] = LOG10([RGB-286638]) -3.29409 LOG10(µM)
[11] = LOG10([RGB-286638]) -3.77121 LOG10(µM)

CDK17/Cyclin Y, sequence (Q00537 whole entry): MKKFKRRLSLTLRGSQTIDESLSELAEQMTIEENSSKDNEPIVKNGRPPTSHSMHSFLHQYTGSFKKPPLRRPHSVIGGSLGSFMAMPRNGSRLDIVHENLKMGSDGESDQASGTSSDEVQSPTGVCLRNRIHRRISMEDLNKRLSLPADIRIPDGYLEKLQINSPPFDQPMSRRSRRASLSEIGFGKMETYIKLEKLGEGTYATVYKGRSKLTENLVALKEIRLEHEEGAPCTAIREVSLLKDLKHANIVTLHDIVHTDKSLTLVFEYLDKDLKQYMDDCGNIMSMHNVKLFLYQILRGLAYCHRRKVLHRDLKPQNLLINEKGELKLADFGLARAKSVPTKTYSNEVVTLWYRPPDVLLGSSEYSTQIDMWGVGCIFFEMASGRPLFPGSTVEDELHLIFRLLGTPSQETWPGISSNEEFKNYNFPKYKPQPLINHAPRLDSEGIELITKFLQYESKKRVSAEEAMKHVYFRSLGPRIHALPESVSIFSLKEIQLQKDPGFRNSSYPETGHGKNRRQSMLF
CDK17/Cyclin Y, sequence (Q8ND76 whole entry partner): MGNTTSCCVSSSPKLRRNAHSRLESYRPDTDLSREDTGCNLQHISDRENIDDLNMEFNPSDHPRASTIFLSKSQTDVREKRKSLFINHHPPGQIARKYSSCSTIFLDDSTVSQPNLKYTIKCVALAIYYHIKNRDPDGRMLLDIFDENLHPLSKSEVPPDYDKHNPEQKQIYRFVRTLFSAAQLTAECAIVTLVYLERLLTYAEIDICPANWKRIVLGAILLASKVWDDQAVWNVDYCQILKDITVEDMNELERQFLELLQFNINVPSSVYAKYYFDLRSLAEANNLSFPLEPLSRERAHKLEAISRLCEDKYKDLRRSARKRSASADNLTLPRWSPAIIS

COCCN1CCN(Cc2ccc(-c3n[nH]c4c3C(=O)c3c(NC(=O)NN5CCOCC5)cccc3-4)cc2)CC1 [RGB286638] gave an inhibition at 10 µM (CDK17/Cyclin Y; average of experiments) of 93.9%, an inhibition at 10 µM (CDK17/Cyclin Y; independent experiment 1) of 95.7% and an inhibition at 10 µM (CDK17/Cyclin Y; independent experiment 2) of 92.1%. For the same compound, the inhibition at 10 µM (CDK8/Cyclin C; average of experiments) was 55.6%, the inhibition at 10 µM (CDK8/Cyclin C; independent experiment 1) was 21.9% and the inhibition at 10 µM (CDK8/Cyclin C; independent experiment 2) was 89.3%. It also gave an inhibition at 10 µM (CDK11A/Cyclin L2; average of experiments) of 41.5%, an inhibition at 10 µM (CDK11A/Cyclin L2; independent experiment 1) of 16.8% and an inhibition at 10 µM (CDK11A/Cyclin L2; independent experiment 2) of 66.3%. For the same compound, the IC50 (CDK15/Cyclin Y; average (± SEM where n=3), read-out: CDK15/Y IC50) was 14 nM, the IC50 (CDK15/Cyclin Y; independent experiment 1, read-out: CDK15/Y IC50) was 14 nM and the IC50 (CDK15/Cyclin Y; independent experiment 2, read-out: CDK15/Y IC50) was 13 nM. It also gave an IC50 (CDK15/Cyclin Y; live HEK-293, 2 h, mean ± S.E.M. (n=3) or mean (n=2), read-out: IC50 for CDK/cyclin complexes, CDK15/Y) of 14 nM, an inhibition at 10 µM (CDK15/Cyclin Y; average of experiments) of 97.4% and an inhibition at 10 µM (CDK15/Cyclin Y; independent experiment 1) of 96.5%. It also gave an inhibition at 10 µM (CDK15/Cyclin Y; independent experiment 2) of 98.2%, an IC50 (CDK10/Cyclin L2; CDK10/L2 IC50 (nM), average (± SEM where n=3)) of 790 nM and an IC50 (CDK10/Cyclin L2; CDK10/L2 IC50 (nM), independent experiment 1) of 790 nM. The IC50 (CDK10/Cyclin L2; CDK10/L2 IC50 (nM), independent experiment 2) was 780 nM, the IC50 (CDK10/Cyclin L2; IC50 for CDK/cyclin complexes, CDK10/L2, live HEK-293, 2 h, mean ± S.E.M. (n=3) or mean (n=2)) was 790 nM and the inhibition at 10 µM (CDK10/Cyclin L2; average of experiments) was 61.4%. It also gave an inhibition at 10 µM (CDK10/Cyclin L2; independent experiment 1) of 37.8%, an inhibition at 10 µM (CDK10/Cyclin L2; independent experiment 2) of 85.1% and an inhibition at 10 µM (CDK13/Cyclin K; average of experiments) of 49.1%. The inhibition at 10 µM (CDK13/Cyclin K; independent experiment 1) was 33.8%, the inhibition at 10 µM (CDK13/Cyclin K; independent experiment 2) was 64.5% and the inhibition at 10 µM (CDK2/Cyclin E1; average of experiments) was 84.4%. For the same compound, the inhibition at 10 µM (CDK2/Cyclin E1; independent experiment 1) was 83.7%, the inhibition at 10 µM (CDK2/Cyclin E1; independent experiment 2) was 85.1% and the “CDK2 Occupancy (%)” value (CDK2/Cyclin E1; [1]) was 96.9519%. The “CDK2 Occupancy (%)” value (CDK2/Cyclin E1; [2]) was 98.1016%, the “CDK2 Occupancy (%)” value (CDK2/Cyclin E1; [3]) was 98.1016% and the “CDK2 Occupancy (%)” value (CDK2/Cyclin E1; [4]) was 95.1872%. For the same compound, the “CDK2 Occupancy (%)” value (CDK2/Cyclin E1; [5]) was 90.2941%, the “CDK2 Occupancy (%)” value (CDK2/Cyclin E1; [6]) was 78.6096% and the “CDK2 Occupancy (%)” value (CDK2/Cyclin E1; [7]) was 57.754%. The “CDK2 Occupancy (%)” value (CDK2/Cyclin E1; [8]) was 30.4813%, the “CDK2 Occupancy (%)” value (CDK2/Cyclin E1; [9]) was 11.4973% and the “CDK2 Occupancy (%)” value (CDK2/Cyclin E1; [10]) was 5.615%. The “CDK2 Occupancy (%)” value (CDK2/Cyclin E1; [11]) was 0.2674%, the IC50 (CDK2/Cyclin E1; average (± SEM where n=3), read-out: CDK2/E1 IC50) was 14 ± 5 nM and the IC50 (CDK2/Cyclin E1; independent experiment 1, read-out: CDK2/E1 IC50) was 8.9 nM. It also gave an IC50 (CDK2/Cyclin E1; independent experiment 2, read-out: CDK2/E1 IC50) of 9.8 nM, an IC50 (CDK2/Cyclin E1; independent experiment 3, read-out: CDK2/E1 IC50) of 23 nM and an IC50 (CDK2/Cyclin E1; live HEK-293, 2 h, mean ± S.E.M. (n=3) or mean (n=2), read-out: IC50 for CDK/cyclin complexes, CDK2/E1) of 12 to 16 nM. For the same compound, the inhibition at 10 µM (CDK7; average of experiments) was 93.9%, the inhibition at 10 µM (CDK7; independent experiment 1) was 91% and the inhibition at 10 µM (CDK7; independent experiment 2) was 96.7%. The “CDK7 Occupancy (%)” value (CDK7; [1]) was 97.0886%, the “CDK7 Occupancy (%)” value (CDK7; [2]) was 96.5823% and the “CDK7 Occupancy (%)” value (CDK7; [3]) was 97.4684%. For the same compound, the “CDK7 Occupancy (%)” value (CDK7; [4]) was 93.9241%, the “CDK7 Occupancy (%)” value (CDK7; [5]) was 87.0886% and the “CDK7 Occupancy (%)” value (CDK7; [6]) was 72.7848%. The “CDK7 Occupancy (%)” value (CDK7; [7]) was 53.2911%, the “CDK7 Occupancy (%)” value (CDK7; [8]) was 31.2658% and the “CDK7 Occupancy (%)” value (CDK7; [9]) was 12.6582%. For the same compound, the “CDK7 Occupancy (%)” value (CDK7; [10]) was 6.329%, the “CDK7 Occupancy (%)” value (CDK7; [11]) was 1.266% and the IC50 (CDK7; average (± SEM where n=3), read-out: CDK7 IC50) was 16 ± 5 nM. For the same compound, the IC50 (CDK7; independent experiment 1, read-out: CDK7 IC50) was 11 nM, the IC50 (CDK7; independent experiment 2, read-out: CDK7 IC50) was 11 nM and the IC50 (CDK7; independent experiment 3, read-out: CDK7 IC50) was 26 nM. For the same compound, the IC50 (CDK7; live HEK-293, 2 h, mean ± S.E.M. (n=3) or mean (n=2), read-out: IC50 for CDK/cyclin complexes, CDK7) was 12 to 16 nM, the inhibition at 10 µM (CDK19/Cyclin C; average of experiments) was 58% and the inhibition at 10 µM (CDK19/Cyclin C; independent experiment 1) was 32.8%. For the same compound, the inhibition at 10 µM (CDK19/Cyclin C; independent experiment 2) was 83.3%.
